Results reported in US9849489B2, “Passive sampling devices” (priority 2015, dated 2017).
Structures can show the parent of a compound that is named as a salt.

How the values were obtained:
[1] = stability of 17 infused compounds in stored wristbands; format: physicochemical; details: for Overall RSD from entire study to 28 days: RSD across all time and temperature samples (−20° C., 4° C., 30° C.); for Beginning RSD from starting time point: RSD of concentration (ng/mL), extraction immediately following infusion
Description: In another example, the stability of wristbands infused with 17 compounds of varied physiochemistry was studied for various combinations of times and temperatures. […] Twelve wristbands underwent solvent extraction and analysis immediately following infusion. The remaining wristbands were divided into three groups and one group of wristbands was stored at each of −20° C., 4° C., and 30° C. Four wristbands from each temperature group underwent solvent extraction and analysis after 7 days and after 28 days. Four wristbands from the −20° C. and 4° C. temperature groups underwent solvent extraction and analysis after 14 days. This stability study is ongoing and will span 2 years.

[2] = stability of PAH-infused wristbands stored in PTFE bags at three temperatures; format: physicochemical; details: −20° C., 23° C. or 35° C., 72 hours
Description: Studies were carried out to examine whether PAHs would degrade after being sequestered by a wristband or whether field or handling conditions would influence exposure concentrations determined during wristband analysis.
The PAH-infused wristbands placed in PTFE storage bags were exposed to a temperature of −20° C. (in a walk-in freezer), 23° C. (ambient temperature), or 35° C. (in a drying oven) for 72 hours. Temperatures in each environment were monitored every 30 minutes using a temperature logger. Following the 72-hour exposure, the PAHs were extracted from the wristbands using solvent extraction and analyzed as described above.
In FIG. 14, the ratio of each analyte response divided by an internal standard response (for perylene-d12) are shown, because an error with surrogate recovery artificially inflated the variance across the three temperature exposures. […] The largest change among all PAH analytes was still less than 13% (fluorene-d10, freezer and ambient temperatures), so any changes in PAH concentrations were deemed negligible. Furthermore, potential changes in concentration would have been conserved since transportation was similar among wristbands within each temperature group. […] The standard deviations in FIG. 14 are the result of three replicates.

Row | Structure (SMILES) | Overall RSD from entire study to 28 days [1] [%] | Beginning RSD from starting time point [1] [%] | largest change in analyte response ratio between temperature groups [2]
1 | [2H]c1c([2H])c([2H])c2c(c1[2H])-c1c([2H])c([2H])c([2H])c([2H])c1C2([2H])[2H] [fluorene-d10, reference compound] | 16 | 14 | less than 13%
2 | [2H]c1c([2H])c([2H])c2c(c1[2H])C(=O)c1c([2H])c([2H])c([2H])c([2H])c1C2=O [Anthraquinone-d8, reference compound] | 14 | 8 | 
3 | CCOP(=S)(OCC)Oc1nc(Cl)c(Cl)cc1Cl [chlorpyrifos] | 24 | 19 | 
4 | [2H]c1c([2H])c(-c2cc(Cl)c(Cl)c(Cl)c2Cl)c([2H])c(Cl)c1Cl [PCB-156-d3, reference compound] | 50 | 53 | 
5 | Brc1ccc(Oc2cc(Br)c(Br)cc2Br)c(Br)c1 [PBDE 99] | 43 | 46 | 
6 | [2H]c1c([2H])c([2H])c(-c2c(Cl)c(Cl)cc(Cl)c2Cl)c([2H])c1[2H] [PCB-65-d5, reference compound] | 37 | 35 | 
7 | [2H]c1c([2H])c(Oc2ccc(Cl)cc2O)c(Cl)c([2H])c1Cl [triclosan-d3, reference compound] | 11 | 9 | 
8 | Brc1cc(Br)c(Oc2cc(Br)c(Br)cc2Br)c(Br)c1 [PBDE 154] | 51 | 53 | 
9 | O=P(OC(CCl)CCl)(OC(CCl)CCl)OC(CCl)CCl [TCDPP, 1,3-dichloro-2-propyl phosphate] | 14 | 10 | 
10 | Brc1ccc(Oc2ccc(Br)cc2Br)c(Br)c1 [PBDE 47] | 37 | 37 | 
11 | O=S1(=O)OCC2C(CO1)C1(Cl)C(Cl)=C(Cl)C2(Cl)C1(Cl)Cl (stereo not drawn) [endosulfan sulfate] | 10 | 8 | 
12 | O=C1C2CC3C1C1(Cl)C(Cl)C4(Cl)C2C3C1(Cl)C4(Cl)Cl (stereo not drawn) [endrin Ketone] | 8 | 4 | 
13 | [2H]c1c([2H])c2c([2H])c([2H])c3c([2H])c([2H])c([2H])c4c([2H])c([2H])c(c1[2H])c2c34 [pyrene-d10, reference compound] | 32 | 27 | 
14 | O=P(Oc1ccccc1)(Oc1ccccc1)Oc1ccccc1 [triphenyl phosphate] | 12 | 6 | 
15 | [2H]c1c([2H])c([2H])c(-c2c(Cl)c(Cl)c(Cl)c(Cl)c2Cl)c([2H])c1[2H] [PCB-116-d5, reference compound] | 44 | 45 | 
16 | CCCSP(=O)(OCC)SCCC [prophos/ethoprophos] | 11 | 8 | 
